Measured values from patent US10736898B2, “Positive allosteric modulators of the muscarinic acetylcholine receptor M4” (Vanderbilt University, priority 2017, dated 2020).

Target: T1, Human M4 (Homo sapiens, UniProt P08173)
T1 construct: expressed in transfected cells
T1 sequence (P08173 1-479): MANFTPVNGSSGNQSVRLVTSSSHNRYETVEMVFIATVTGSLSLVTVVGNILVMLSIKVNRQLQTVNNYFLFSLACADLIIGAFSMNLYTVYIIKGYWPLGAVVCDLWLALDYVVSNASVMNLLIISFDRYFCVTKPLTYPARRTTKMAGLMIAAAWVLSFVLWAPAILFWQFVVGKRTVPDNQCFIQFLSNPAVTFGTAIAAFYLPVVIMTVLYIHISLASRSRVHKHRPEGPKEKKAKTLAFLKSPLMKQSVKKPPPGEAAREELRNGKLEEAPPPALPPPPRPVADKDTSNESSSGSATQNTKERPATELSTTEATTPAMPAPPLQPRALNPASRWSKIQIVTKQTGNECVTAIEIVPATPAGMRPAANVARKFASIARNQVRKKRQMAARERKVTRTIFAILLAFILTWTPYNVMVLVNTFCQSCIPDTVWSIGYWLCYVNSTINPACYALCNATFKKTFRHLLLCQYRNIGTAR
Assay: mAChR M4 cell-based functional assay (calcium flux, potentiation of EC20 acetylcholine response)
Conditions: for Emax at 30 µM: % ACh maximum at 30 μM, human M4; for EC50: CHO-K1 cells with human M4 and Gqi5, increase in EC20 acetylcholine response

SMILES | Emax at 30 µM [%] | EC50 [µM]
Cc1nc(C)c2c(n1)sc1c(N3CC[C@H](F)C3)ncnc12 [Compound 19, (S)-4-(3-fluoropyrrolidin-1-yl)-7,9-dimethylthieno[2,3-d:4,5-d′]dipyrimidine] | 62.4 | 1.06
COc1ccc(CNc2nccc3c2sc2nc(C)nc(C)c23)cc1F [Compound 13, N-(3-fluoro-4-methoxybenzyl)-2,4-dimethylpyrido[4′,3′:4,5]thieno[2,3-d]pyrimidin-8-amine] | 84.4 | 0.169
Cc1nc(C)c2c(n1)sc1c(NC3CCC3)nccc12 [Compound 26, N-cyclobutyl-2,4-dimethyl-pyrido[4,5]thieno[1,2-b]pyrimidin-8-amine] | 94.8 | 0.3
Cc1nc(C2CC2)nc2sc3c(NCc4ccc(F)c(F)c4)nccc3c12 [Compound 29, 2-cyclopropyl-N-[(3,4-difluorophenyl)methyl]-4-methyl-pyrido[4,5]thieno[1,2-d]pyrimidin-8-amine] | 62.4 | 6.69
Cc1nc(C)c2c(n1)sc1c(NCc3ccc(C(C)(O)C4CC4)cc3)ncnc12 (centres unmarked) [Compound 7, 1-cyclopropyl-1-(4-(((7,9-dimethylthieno[2,3-d:4,5-d′]dipyrimidin-4-yl)amino)methyl)phenyl)ethan-1-ol] | 71.2 | 2.09
Cc1nc(C2CC2)nc2sc3c(NCc4ccc(C(C)(C)O)cc4)nccc3c12 [Compound 28, 2-[4-[[(2-cyclopropyl-4-methyl-pyrido[4,5]thieno[1,2-d]pyrimidin-8-yl)amino]methyl]phenyl]propan-2-ol] | 97 | 1.39
Cc1nc(C2CC2)nc2sc3c(N4CCOCC4)nccc3c12 [Compound 30, 4-(2-cyclopropyl-4-methyl-pyrido[4,5]thieno[1,2-d]pyrimidin-8-yl)morpholine] | 74.2 | 0.449
Cc1nc(C)c2c(n1)sc1c(NC3CCCC3)ncnc12 [Compound 4, N-cyclopentyl-7,9-dimethylthieno[2,3-d:4,5-d′]dipyrimidin-4-amine] | 55.5 | 0.557
Cc1nc(C)c2c(n1)sc1c(N3CCOCC3)ncnc12 [Compound 9, 4-(7,9-dimethylthieno[2,3-d:4,5-d′]dipyrimidin-4-yl)morpholine] | 39.1 | 5.57
[2H]C([2H])(Nc1ncnc2c1sc1nc(C)nc(C)c12)c1ccc(C(C)(C)O)cc1 [Compound 5, 2-(4-(((7,9-dimethylthieno[2,3-d:4,5-d′]dipyrimidin-4-yl)amino)methyl-d2)phenyl)propan-2-ol] | 79.3 | 1.37
CCN(CC)C(=O)c1ccc(CNc2nccc3c2sc2nc(C)nc(C)c23)cc1 [Compound 23, 4-[[(2,4-dimethylpyrido[4,5]thieno[1,2-b]pyrimidin-8-yl)amino]methyl]-N,N-diethyl-benzamide] | 78.8 | 4.24
Cc1nc(C)c2c(n1)sc1c(N3CCC(F)(F)C3)nccc12 [Compound 25, 8-(3,3-difluoropyrrolidin-1-yl)-2,4-dimethyl-pyrido[4,5]thieno[1,2-b]pyrimidine] | 94.6 | 0.042
CCc1nc(C)c2c(n1)sc1c(N3CCC(F)(F)C3)nccc12 [Compound 35, 8-(3,3-difluoropyrrolidin-1-yl)-2-ethyl-4-methyl-pyrido[4,5]thieno[1,2-b]pyrimidine] | 96.9 | 0.263

Second part, the compound after the results:

Emax at 30 µM [%] | EC50 [µM] | SMILES
103 | 0.129 | Cc1nc(C2CC2)nc2sc3c(NC4CC4)nccc3c12 [Compound 32, N,2-dicyclopropyl-4-methyl-pyrido[4,5]thieno[1,2-d]pyrimidin-8-amine]
85.8 | 0.237 | Cc1nc(C)c2c(n1)sc1c(NCc3ccc(C(C)(C)O)c(F)c3)nccc12 [Compound 31, 2-[4-[[(2,4-dimethylpyrido[4,5]thieno[1,2-b]pyrimidin-8-yl)amino]methyl]-2-fluoro-phenyl]propan-2-ol]
64.8 | 1.16 | COc1ccc(CNc2ncnc3c2sc2nc(C)nc(C)c23)cc1F [Compound 3, N-(3-fluoro-4-methoxybenzyl)-7,9-dimethylthieno[2,3-d:4,5-d′]dipyrimidin-4-amine]
76.9 | 0.635 | Cc1nc(C)c2c(n1)sc1c(N3CCC(F)(F)C3)ncnc12 [Compound 18, 4-(3,3-difluoropyrrolidin-1-yl)-7,9-dimethylthieno[2,3-d:4,5-d′]dipyrimidine]
73.3 | 0.134 | Cc1nc(C)c2c(n1)sc1c(NC3CCCC3)nccc12 [Compound 15, N-cyclopentyl-2,4-dimethylpyrido[4′,3′:4,5]thieno[2,3-d]pyrimidin-8-amine]
76 | 1.58 | Cc1nc(C)c2c(n1)sc1c(N3CC4(COC4)C3)ncnc12 [Compound 10, 6-(7,9-dimethylthieno[2,3-d:4,5-d′]dipyrimidin-4-yl)-2-oxa-6-azaspiro[3.3]heptane]
60.1 | 0.997 | Cc1nc(C)c2c(n1)sc1c(NC3CCC3)ncc(Cl)c12 [Compound 44, 5-chloro-N-cyclobutyl-2,4-dimethyl-pyrido[4,5]thieno[1,2-b]pyrimidin-8-amine]
73 | 1.47 | Cc1nc(C2CC2)nc2sc3c(N4CCC(F)CC4)nccc3c12 [Compound 40, 2-cyclopropyl-8-(4-fluoro-1-piperidyl)-4-methyl-pyrido[4,5]thieno[1,2-d]pyrimidine]
69 | 1.86 | Cc1nc(C2CC2)nc2sc3c(NC4CCCC4)nccc3c12 [Compound 39, N-cyclopentyl-2-cyclopropyl-4-methyl-pyrido[4,5]thieno[1,2-d]pyrimidin-8-amine]
87.4 | 1.33 | CCc1nc(C)c2c(n1)sc1c(NCc3ccc(OC)c(F)c3)nccc12 [Compound 33, 2-ethyl-N-[(3-fluoro-4-methoxy-phenyl)methyl]-4-methyl-pyrido[4,5]thieno[1,2-b]pyrimidin-8-amine]
57.9 | 0.073 | Cc1nc(C)c2c(n1)sc1c(N3CCCCC3)nccc12 [Compound 12, 2,4-dimethyl-8-(1-piperidyl)pyrido[4′,3′:4,5]thieno[2,3-d]pyrimidine]
50.3 | 4.35 | Cc1nc(C)c2c(n1)sc1c(NCc3ccc(F)c(F)c3)ncc(Cl)c12 [Compound 43, 5-chloro-N-[(3,4-difluorophenyl)methyl]-2,4-dimethyl-pyrido[4,5]thieno[1,2-b]pyrimidin-8-amine]
88.7 | 0.84 | Cc1nc(C)c2c(n1)sc1c(NCc3ccc(C(C)(C)O)cc3F)nccc12 [Compound 22, 2-[4-[[(2,4-dimethylpyrido[4,5]thieno[1,2-b]pyrimidin-8-yl)amino]methyl]-3-fluoro-phenyl]propan-2-ol]
42.9 | 0.185 | Cc1nc(C)c2c(n1)sc1c(N3CC4(C3)CC(F)(F)C4)ncnc12 [Compound 17, 4-(6,6-difluoro-2-azaspiro[3.3]heptan-2-yl)-7,9-dimethylthieno[2,3-d:4,5-d′]dipyrimidine]
71.5 | 0.791 | Cc1nc(C)c2c(n1)sc1c(N3CC[C@@H](F)C3)ncnc12 [Compound 20, (R)-4-(3-fluoropyrrolidin-1-yl)-7,9-dimethylthieno[2,3-d:4,5-d′]dipyrimidine]
